Experimental data reported in article PMC12361428 (Nature Communications, 2025).
Values joined by “and” are separate entries in the source; they are usually repeats but may differ in a detail not shown here. Identical values can stand only once. “Also recorded” adds a separate entry of the source.

Assays:
[1] = molecular target: T1, Nluc-A3AR V169E^45.53 (Homo sapiens, UniProt P0DMS8, V169E); test: biochemical; assay type: binding
T1 construct: expressed in transfected cells; host or cells: HEK293a
T1 sequence (P0DMS8 whole entry V169E): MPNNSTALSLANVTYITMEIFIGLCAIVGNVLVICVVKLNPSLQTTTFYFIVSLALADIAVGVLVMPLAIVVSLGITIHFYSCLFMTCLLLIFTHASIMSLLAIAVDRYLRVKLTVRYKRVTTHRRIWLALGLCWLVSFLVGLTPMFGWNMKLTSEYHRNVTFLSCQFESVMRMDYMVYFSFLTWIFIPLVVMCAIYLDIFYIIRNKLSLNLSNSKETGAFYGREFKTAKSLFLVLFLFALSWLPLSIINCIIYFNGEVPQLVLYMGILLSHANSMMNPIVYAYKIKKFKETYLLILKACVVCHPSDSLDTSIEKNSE
Method: (§1) All experiments were performed in duplicate.
(§2) Data were expressed as the mean ± standard error. All binding and Trupath data were analysed using the nonlinear regression curve-fitting programme with Prism 10 (GraphPad, San Diego, CA, USA). For nanoBRET saturation binding experiments, specific binding was calculated by subtracting non-specific binding (defined as binding in the presence of 10 µM MRS1220) from total binding. Specific binding data in each experiment were then normalised to the maximal binding (Bmax) of WT and fit to a one-site specific binding equation: Y =Bmax*[X]/(Kd + [X]). For nanoBRET competition binding experiments, data were normalised to total and non-specific binding responses and fit to a one-site—Fit Ki equation. Trupath's experimental data was baseline-corrected to the initial four baseline reads and then adjusted to the buffer control response. The area under the curve (AUC) for each response was calculated and plotted with a non-linear regression curve (log[agonist] vs response, three-parameter model), using the equation: Y = Bottom + (Top–Bottom)/(1 + 10^((LogEC50-X))). Here, X represents the log dose of the agonist, Y is the BRET2 AUC response, Top and Bottom are the curve plateaus, and EC50 is the agonist concentration yielding a response halfway between the Bottom and Top values. […] Significant differences vs WT were determined by one-way ANOVA with a Dunnett’s multiple comparison test. Significance levels are indicated as follows: P ≤ 0.0001****, P = 0.0001–0.001***, P = 0.001–0.01**, and P = 0.01–0.05*.

[2] = molecular target: T2, Nluc-A3AR T94A^3.36 (Homo sapiens, UniProt P0DMS8, T94A); test: biochemical; assay type: binding
T2 construct: expressed in transfected cells; host or cells: HEK293a
T2 sequence (P0DMS8 whole entry T94A): as the sequence (P0DMS8 whole entry V169E) above, with T94A, E169V counted along it
Method: as §1
(§3) Data were expressed as the mean ± standard error. All binding and Trupath data were analysed using the nonlinear regression curve-fitting programme with Prism 10 (GraphPad, San Diego, CA, USA). For nanoBRET saturation binding experiments, specific binding was calculated by subtracting non-specific binding (defined as binding in the presence of 10 µM MRS1220) from total binding. Specific binding data in each experiment were then normalised to the maximal binding (Bmax) of WT and fit to a one-site specific binding equation: Y =Bmax*[X]/(Kd + [X]). For nanoBRET competition binding experiments, data were normalised to total and non-specific binding responses and fit to a one-site—Fit Ki equation. Trupath's experimental data was baseline-corrected to the initial four baseline reads and then adjusted to the buffer control response. The area under the curve (AUC) for each response was calculated and plotted with a non-linear regression curve (log[agonist] vs response, three-parameter model), using the equation: Y = Bottom + (Top–Bottom)/(1 + 10^((LogEC50-X))). Here, X represents the log dose of the agonist, Y is the BRET2 AUC response, Top and Bottom are the curve plateaus, and EC50 is the agonist concentration yielding a response halfway between the Bottom and Top values. […] The efficacy of the agonists (τA) was separately calculated using the Black–Leff operational model of agonism[79] using KA values from Table 2 and then corrected for receptor expression relative to WT using Bmax values from Table 1[80]. Significant differences vs WT were determined by one-way ANOVA with a Dunnett’s multiple comparison test.

[3] = molecular target: T3, Nluc-A3AR WT (Homo sapiens, UniProt P0DMS8); test: biochemical; assay type: binding
T3 construct: expressed in transfected cells; host or cells: HEK293a
T3 sequence (P0DMS8 whole entry): as the sequence (P0DMS8 whole entry V169E) above, with E169V counted along it
Method: as §1
(§4) Data were expressed as the mean ± standard error. All binding and Trupath data were analysed using the nonlinear regression curve-fitting programme with Prism 10 (GraphPad, San Diego, CA, USA). For nanoBRET saturation binding experiments, specific binding was calculated by subtracting non-specific binding (defined as binding in the presence of 10 µM MRS1220) from total binding. Specific binding data in each experiment were then normalised to the maximal binding (Bmax) of WT and fit to a one-site specific binding equation: Y =Bmax*[X]/(Kd + [X]). For nanoBRET competition binding experiments, data were normalised to total and non-specific binding responses and fit to a one-site—Fit Ki equation. […] Significant differences vs WT were determined by one-way ANOVA with a Dunnett’s multiple comparison test.

[4] = molecular target: T4, Nluc-A3AR Y265A^7.36 (Homo sapiens, UniProt P0DMS8, Y265A); test: biochemical; assay type: binding
T4 construct: expressed in transfected cells; host or cells: HEK293a
T4 sequence (P0DMS8 whole entry Y265A): as the sequence (P0DMS8 whole entry V169E) above, with E169V, Y265A counted along it
Method: as §1, §3

[5] = molecular target: T5, Nluc-A3AR S73A^2.65 (Homo sapiens, UniProt P0DMS8, S73A); test: biochemical; assay type: binding
T5 construct: expressed in transfected cells; host or cells: HEK293a
T5 sequence (P0DMS8 whole entry S73A): as the sequence (P0DMS8 whole entry V169E) above, with S73A, E169V counted along it
Method: as §1, §4

[6] = molecular target: T6, Nluc-A3AR Y15A^1.35 (Homo sapiens, UniProt P0DMS8, Y15A); test: biochemical; assay type: binding
T6 construct: expressed in transfected cells; host or cells: HEK293a
T6 sequence (P0DMS8 whole entry Y15A): as the sequence (P0DMS8 whole entry V169E) above, with Y15A, E169V counted along it
Method: as §1, §3

[7] = molecular target: T7, Nluc-A3AR M174A^5.35 (Homo sapiens, UniProt P0DMS8, M174A); test: biochemical; assay type: binding
T7 construct: expressed in transfected cells; host or cells: HEK293a
T7 sequence (P0DMS8 whole entry M174A): as the sequence (P0DMS8 whole entry V169E) above, with E169V, M174A counted along it
Method: as §1, §3

[8] = molecular target: T8, Nluc-A3AR S271A^7.42 (Homo sapiens, UniProt P0DMS8, S271A); test: biochemical; assay type: binding
T8 construct: expressed in transfected cells; host or cells: HEK293a
T8 sequence (P0DMS8 whole entry S271A): as the sequence (P0DMS8 whole entry V169E) above, with E169V, S271A counted along it
Method: as §1, §4

[9] = molecular target: T9, A3AR-BRIL-S97R (Homo sapiens, UniProt P0DMS8, N160A/S97R, form not given); test: NanoBRET competition binding vs XAC-630; conditions: for XAC-630 NanoBRET binding, normalised (Figure S2H), individual replicates: A3AR-BRIL-S97R
T9 sequence (P0DMS8 1-318 S97R/N160A): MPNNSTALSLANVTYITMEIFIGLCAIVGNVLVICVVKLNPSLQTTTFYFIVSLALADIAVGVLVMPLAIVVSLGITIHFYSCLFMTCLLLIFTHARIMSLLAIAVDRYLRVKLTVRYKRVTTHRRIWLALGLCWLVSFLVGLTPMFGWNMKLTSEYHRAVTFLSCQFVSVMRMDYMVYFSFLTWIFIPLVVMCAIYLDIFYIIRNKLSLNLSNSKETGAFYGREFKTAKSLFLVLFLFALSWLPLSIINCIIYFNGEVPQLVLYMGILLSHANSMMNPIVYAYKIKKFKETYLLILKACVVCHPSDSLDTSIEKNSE

[10] = molecular target: T10, Nluc-A3AR H95F^3.37 (Homo sapiens, UniProt P0DMS8, H95F); test: biochemical; assay type: binding
T10 construct: expressed in transfected cells; host or cells: HEK293a
T10 sequence (P0DMS8 whole entry H95F): as the sequence (P0DMS8 whole entry V169E) above, with H95F, E169V counted along it
Method: as §1, §2

[11] = molecular target: T11, Nluc-A3AR H95A^3.37 (Homo sapiens, UniProt P0DMS8, H95A); test: biochemical; assay type: binding
T11 construct: expressed in transfected cells; host or cells: HEK293a
T11 sequence (P0DMS8 whole entry H95A): as the sequence (P0DMS8 whole entry V169E) above, with H95A, E169V counted along it
Method: as §1, §2

[12] = system: Nluc-tagged hA3AR-BRIL-S97R; test: NanoBRET washout (irreversible binding) assay vs XAC-630

CCCn1c(=O)c2c(nc3cc(OC)ccn32)n(CCCCNC(=O)c2ccc(S(=O)(=O)F)cc2)c1=O [LUF7602]
pKi ([1]; V169E): 7.2 ± 0.05 (3)
ΔpKi relative to WT ([1]; V169E): -0.293
remaining activity at 0.06026 µM ([1]; read-out: normalised XAC-630 binding, V169E, log[LUF7602] -7.22 M): 87.5%
remaining activity at 0.006026 µM ([1]; read-out: normalised XAC-630 binding, V169E, log[LUF7602] -8.22 M): 97.5%
remaining activity at 0.0006026 µM ([1]; read-out: normalised XAC-630 binding, V169E, log[LUF7602] -9.22 M): 105%
remaining activity at 60.26 pM ([1]; read-out: normalised XAC-630 binding, V169E, log[LUF7602] -10.22 M): 100%
remaining activity at 0.6026 µM ([1]; read-out: normalised XAC-630 binding, V169E, log[LUF7602] -[…]): 17%
pKi ([2]; T94A): 7.3 ± 0.05 (3)
ΔpKi relative to WT ([2]; T94A): -0.208
remaining activity at 0.06026 µM ([2]; read-out: normalised XAC-630 binding, T94A, log[LUF7602] -7.22 M): 77.1%
remaining activity at 0.006026 µM ([2]; read-out: normalised XAC-630 binding, T94A, log[LUF7602] -8.22 M): 100%
remaining activity at 0.0006026 µM ([2]; read-out: normalised XAC-630 binding, T94A, log[LUF7602] -9.22 M): 87.2%
remaining activity at 60.26 pM ([2]; read-out: normalised XAC-630 binding, T94A, log[LUF7602] -10.22 M): 100%
pKi ([3]; WT): 7.5 ± 0.05 (4)
ΔpKi relative to WT ([3]; WT): 0
pKi Mean (Figure S2H) ([3]; WT, n 3): 7.306
XAC-630 NanoBRET binding, normalised (Figure S2H), individual replicates ([3]; log LUF7602 -5, A3AR-WT): 0
normalised XAC-630 binding at 10 µM ([3]; read-out: XAC-630 NanoBRET binding, normalised (Figure S2H), individual replicates, log LUF7602 -5, A3AR-WT): 0%
normalised XAC-630 binding at 0.1 µM ([3]; read-out: XAC-630 NanoBRET binding, normalised (Figure S2H), individual replicates, log LUF7602 -7, A3AR-WT): 59.3%
normalised XAC-630 binding at 0.01 µM ([3]; read-out: XAC-630 NanoBRET binding, normalised (Figure S2H), individual replicates, log LUF7602 -8, A3AR-WT): 78%
normalised XAC-630 binding at 0.0001 µM ([3]; read-out: XAC-630 NanoBRET binding, normalised (Figure S2H), individual replicates, log LUF7602 -10, A3AR-WT): 89.4%
normalised XAC-630 binding at 0.06026 µM ([3]; read-out: normalised XAC-630 binding, WT, log[LUF7602] -7.22 M): 69.6%
normalised XAC-630 binding at 0.006026 µM ([3]; read-out: normalised XAC-630 binding, WT, log[LUF7602] -8.22 M): 96.8%
normalised XAC-630 binding at 0.0006026 µM ([3]; read-out: normalised XAC-630 binding, WT, log[LUF7602] -9.22 M): 90.4%
normalised XAC-630 binding at 60.26 pM ([3]; read-out: normalised XAC-630 binding, WT, log[LUF7602] -10.22 M): 100%
pKi ([4]; Y265A): 6.3 ± 0.07 (3)
reduction of binding affinity vs WT ([4]; Y265A): 15 fold
ΔpKi relative to WT ([4]; Y265A): -1.2
remaining activity at […] ([4]; read-out: normalised XAC-630 binding, Y265A, log[LUF7602] -9.5 M): 100%
pKi ([5]; S73A): 7.2 ± 0.06 (3)
ΔpKi relative to WT ([5]; S73A): -0.31
remaining activity at 0.06026 µM ([5]; read-out: normalised XAC-630 binding, S73A, log[LUF7602] -7.22 M): 71.4%
remaining activity at 0.006026 µM ([5]; read-out: normalised XAC-630 binding, S73A, log[LUF7602] -8.22 M): 90.3%
remaining activity at 0.0006026 µM ([5]; read-out: normalised XAC-630 binding, S73A, log[LUF7602] -9.22 M): 91.8%
remaining activity at 60.26 pM ([5]; read-out: normalised XAC-630 binding, S73A, log[LUF7602] -10.22 M): 100%
remaining activity at 0.6026 µM ([5]; read-out: normalised XAC-630 binding, S73A, log[LUF7602] -[…]): 19.1%
pKi ([6]; Y15A): 6.6 ± 0.2 (4)
reduction of binding affinity vs WT ([6]; Y15A): 10 fold
ΔpKi relative to WT ([6]; Y15A): -0.882
remaining activity at 60.26 pM ([6]; read-out: normalised XAC-630 binding, Y15A, log[LUF7602] -10.22 M): 100%
pKi ([7]; M174A): 6.5 ± 0.09 (3)
reduction of binding affinity vs WT ([7]; M174A): 10 fold
ΔpKi relative to WT ([7]; M174A): -0.957
remaining activity at 0.06026 µM ([7]; read-out: normalised XAC-630 binding, M174A, log[LUF7602] -7.22 M): 96.7%
remaining activity at 0.0006026 µM ([7]; read-out: normalised XAC-630 binding, M174A, log[LUF7602] -9.22 M): 112%
remaining activity at 60.26 pM ([7]; read-out: normalised XAC-630 binding, M174A, log[LUF7602] -10.22 M): 100%
remaining activity at 0.6026 µM ([7]; read-out: normalised XAC-630 binding, M174A, log[LUF7602] -[…]): 44.9%
ΔpKi relative to WT ([8]; S271A): 0.423
pKi ([8]; S271A, 40 nM XAC-630): 7.9 ± 0.09 (3)
remaining activity at 60.26 pM ([8]; read-out: normalised XAC-630 binding, S271A, log[LUF7602] -10.22 M): 100%
remaining activity at 0.6026 µM ([8]; read-out: normalised XAC-630 binding, S271A, log[LUF7602] -[…]): 5.71%
pKi Mean (Figure S2H) ([9]; BRIL-S97R, n 3): 7.024
XAC-630 NanoBRET binding, normalised (Figure S2H), individual replicates ([9]; log LUF7602 -5): 0
XAC-630 NanoBRET binding, normalised (Figure S2H), individual replicates ([9]; log LUF7602 -6): 19.3899 and 25.983 and 15.2236
XAC-630 NanoBRET binding, normalised (Figure S2H), individual replicates ([9]; log LUF7602 -7): 80.7723 and 57.132 and 87.3086
XAC-630 NanoBRET binding, normalised (Figure S2H), individual replicates ([9]; log LUF7602 -8): 99.2468 and 73.5169 and 111.113
XAC-630 NanoBRET binding, normalised (Figure S2H), individual replicates ([9]; log LUF7602 -9): 98.8814 and 81.6512 and 110.04
XAC-630 NanoBRET binding, normalised (Figure S2H), individual replicates ([9]; log LUF7602 -10): 102.286 and 79.8771 and 109.058
pKi ([10]; H95F): 6.4 ± 0.09 (3)
reduction of binding affinity vs WT ([10]; H95F): ~ 10 fold
ΔpKi relative to WT ([10]; H95F): -1.06
remaining activity at 0.006026 µM ([10]; read-out: normalised XAC-630 binding, H95F, log[LUF7602] -8.22 M): 88.8%
remaining activity at 60.26 pM ([10]; read-out: normalised XAC-630 binding, H95F, log[LUF7602] -10.22 M): 100%
remaining activity at 0.6026 µM ([10]; read-out: normalised XAC-630 binding, H95F, log[LUF7602] -[…]): 47%
pKi ([11]; H95A): 6.2 ± 0.2 (3)
reduction of binding affinity vs WT ([11]; H95A): ~ 10 fold
ΔpKi relative to WT ([11]; H95A): -1.328
remaining activity at 0.1 µM ([11]; read-out: normalised XAC-630 binding, H95A, log[LUF7602] -7 M): 98.1%
remaining activity at 0.01 µM ([11]; read-out: normalised XAC-630 binding, H95A, log[LUF7602] -8 M): 113%
remaining activity at 0.001 µM ([11]; read-out: normalised XAC-630 binding, H95A, log[LUF7602] -9 M): 104%
remaining activity at 0.0001 µM ([11]; read-out: normalised XAC-630 binding, H95A, log[LUF7602] -10 M): 100%
inhibition of XAC-630 binding after 4x washout ([12]; 10 μM, 4 h, 4 washing steps): wash-resistant inhibition; also recorded: retained inhibition
rebinding of XAC-630 in the washout experiments ([12]; 10 μM, 4 h, 4 washing steps): ~ 15%
NanoBRET washout assay, normalised signal (Figure S2G), individual replicates ([12]; 4 x Wash): 12.3969 and 12.724 and 15.9645 and 7.178
NanoBRET washout assay, normalised signal (Figure S2G), individual replicates ([12]; Control (no wash)): 1.693 and 0.891 and -0.3357 and 2.202
